Experimental data: paper PMC7827406, “Structure–Activity Relationship (SAR) Study of Spautin-1 to Entail the Discovery of Novel NEK4 Inhibitors” (International Journal of Molecular Sciences, 2021)
Where two headings read alike, the source gives them in different places.

Columns and labels:
Assay in all cases: biochemical
Set-up in all cases: Eurofins KinaseProfiler full panel at Km ATP, residual kinase activity (%) relative to DMSO
MLK4(h) = target: T1, MLK4(h) (Homo sapiens, UniProt Q5TCX8)
T1 construct: gene MAP3K21
Summary of the method: (§1)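 Two 10 µM single-concentration screens were run: a competition-binding screen, in which DNA-tagged kinase bound to immobilized ligands was quantified by qPCR, and a radiometric activity panel at Km ATP. Each is expressed as residual kinase activity (%).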

CK1γ3(h) = target: T2, CK1γ3(h) (Homo sapiens, UniProt Q9Y6M4)
T2 construct: gene CSNK1G3
Summary of the method: as §1

BrSK2(h) = target: T3, BrSK2(h) (Homo sapiens, UniProt Q8IWQ3)
T3 sequence (Q8IWQ3 1-736): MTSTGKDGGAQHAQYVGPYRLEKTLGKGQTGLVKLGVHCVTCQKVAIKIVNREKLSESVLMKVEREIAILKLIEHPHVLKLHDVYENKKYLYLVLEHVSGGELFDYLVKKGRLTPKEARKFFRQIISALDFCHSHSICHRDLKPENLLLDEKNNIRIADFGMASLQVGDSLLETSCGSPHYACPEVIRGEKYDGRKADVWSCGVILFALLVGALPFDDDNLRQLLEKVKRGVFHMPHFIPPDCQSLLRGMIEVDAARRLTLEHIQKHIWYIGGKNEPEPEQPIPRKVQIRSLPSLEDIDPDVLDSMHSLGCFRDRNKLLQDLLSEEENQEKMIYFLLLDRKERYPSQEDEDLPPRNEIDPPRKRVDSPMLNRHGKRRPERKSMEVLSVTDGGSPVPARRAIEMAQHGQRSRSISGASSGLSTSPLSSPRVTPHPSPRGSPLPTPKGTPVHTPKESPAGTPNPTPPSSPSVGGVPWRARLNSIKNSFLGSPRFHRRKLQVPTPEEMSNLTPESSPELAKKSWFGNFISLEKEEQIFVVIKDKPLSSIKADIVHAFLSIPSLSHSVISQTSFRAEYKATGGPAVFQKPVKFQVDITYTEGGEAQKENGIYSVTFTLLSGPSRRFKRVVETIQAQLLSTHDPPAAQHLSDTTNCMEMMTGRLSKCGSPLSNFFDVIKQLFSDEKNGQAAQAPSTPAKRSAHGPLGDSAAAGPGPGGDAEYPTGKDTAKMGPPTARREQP
Summary of the method: as §1

KDR(h) = KDR(h) (Homo sapiens, UniProt P35968)
Summary of the method: as §1

GSK3β(h) = target: T4, GSK3β(h) (Homo sapiens, UniProt P49841)
T4 construct: gene GSK3B
Summary of the method: as §1

PRK1(h) = target: T5, PRK1(h) (Homo sapiens, UniProt Q16512)
T5 construct: gene PKN1
Summary of the method: as §1

Arg(m) = target: T6, Arg(m) (Mus musculus, UniProt Q4JIM5)
T6 construct: gene Abl2
Summary of the method: as §1

LIMK2(h) = LIMK2(h) (Homo sapiens, UniProt P53671)
Summary of the method: as §1

Axl(h) = target: T7, Axl(h) (Homo sapiens, UniProt P30530)
T7 sequence (P30530 1-894): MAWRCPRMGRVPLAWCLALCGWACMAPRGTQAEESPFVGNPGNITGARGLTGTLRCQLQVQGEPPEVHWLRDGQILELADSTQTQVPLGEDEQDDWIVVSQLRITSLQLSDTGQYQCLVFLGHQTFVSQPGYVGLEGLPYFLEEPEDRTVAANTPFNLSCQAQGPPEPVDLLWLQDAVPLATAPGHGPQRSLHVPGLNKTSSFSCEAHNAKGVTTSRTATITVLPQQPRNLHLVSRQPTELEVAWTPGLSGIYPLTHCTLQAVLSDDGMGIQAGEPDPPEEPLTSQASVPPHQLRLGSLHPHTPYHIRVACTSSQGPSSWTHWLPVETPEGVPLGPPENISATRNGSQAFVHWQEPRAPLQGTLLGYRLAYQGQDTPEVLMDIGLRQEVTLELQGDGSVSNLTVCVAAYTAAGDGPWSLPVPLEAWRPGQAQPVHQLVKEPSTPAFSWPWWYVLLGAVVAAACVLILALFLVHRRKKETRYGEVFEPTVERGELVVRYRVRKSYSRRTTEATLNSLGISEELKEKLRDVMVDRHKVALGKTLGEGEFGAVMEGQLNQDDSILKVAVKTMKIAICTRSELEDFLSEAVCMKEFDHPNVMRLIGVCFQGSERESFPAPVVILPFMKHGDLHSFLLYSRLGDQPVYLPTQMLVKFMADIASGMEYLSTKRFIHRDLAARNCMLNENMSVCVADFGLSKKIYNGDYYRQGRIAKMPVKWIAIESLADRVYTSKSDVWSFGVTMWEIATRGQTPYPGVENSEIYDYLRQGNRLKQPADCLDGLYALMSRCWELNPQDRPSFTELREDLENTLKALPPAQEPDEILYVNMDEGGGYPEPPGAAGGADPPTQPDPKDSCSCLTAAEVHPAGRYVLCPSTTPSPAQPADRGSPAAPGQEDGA
Summary of the method: as §1

[1] = read-out: Residual activity (%) 5at
[2] = read-out: Residual activity (%) 5as
[3] = read-out: Residual activity (%) 5ay
[4] = read-out: Residual activity (%) Spautin-1 5aa

T6 sequence (Q4JIM5 whole entry): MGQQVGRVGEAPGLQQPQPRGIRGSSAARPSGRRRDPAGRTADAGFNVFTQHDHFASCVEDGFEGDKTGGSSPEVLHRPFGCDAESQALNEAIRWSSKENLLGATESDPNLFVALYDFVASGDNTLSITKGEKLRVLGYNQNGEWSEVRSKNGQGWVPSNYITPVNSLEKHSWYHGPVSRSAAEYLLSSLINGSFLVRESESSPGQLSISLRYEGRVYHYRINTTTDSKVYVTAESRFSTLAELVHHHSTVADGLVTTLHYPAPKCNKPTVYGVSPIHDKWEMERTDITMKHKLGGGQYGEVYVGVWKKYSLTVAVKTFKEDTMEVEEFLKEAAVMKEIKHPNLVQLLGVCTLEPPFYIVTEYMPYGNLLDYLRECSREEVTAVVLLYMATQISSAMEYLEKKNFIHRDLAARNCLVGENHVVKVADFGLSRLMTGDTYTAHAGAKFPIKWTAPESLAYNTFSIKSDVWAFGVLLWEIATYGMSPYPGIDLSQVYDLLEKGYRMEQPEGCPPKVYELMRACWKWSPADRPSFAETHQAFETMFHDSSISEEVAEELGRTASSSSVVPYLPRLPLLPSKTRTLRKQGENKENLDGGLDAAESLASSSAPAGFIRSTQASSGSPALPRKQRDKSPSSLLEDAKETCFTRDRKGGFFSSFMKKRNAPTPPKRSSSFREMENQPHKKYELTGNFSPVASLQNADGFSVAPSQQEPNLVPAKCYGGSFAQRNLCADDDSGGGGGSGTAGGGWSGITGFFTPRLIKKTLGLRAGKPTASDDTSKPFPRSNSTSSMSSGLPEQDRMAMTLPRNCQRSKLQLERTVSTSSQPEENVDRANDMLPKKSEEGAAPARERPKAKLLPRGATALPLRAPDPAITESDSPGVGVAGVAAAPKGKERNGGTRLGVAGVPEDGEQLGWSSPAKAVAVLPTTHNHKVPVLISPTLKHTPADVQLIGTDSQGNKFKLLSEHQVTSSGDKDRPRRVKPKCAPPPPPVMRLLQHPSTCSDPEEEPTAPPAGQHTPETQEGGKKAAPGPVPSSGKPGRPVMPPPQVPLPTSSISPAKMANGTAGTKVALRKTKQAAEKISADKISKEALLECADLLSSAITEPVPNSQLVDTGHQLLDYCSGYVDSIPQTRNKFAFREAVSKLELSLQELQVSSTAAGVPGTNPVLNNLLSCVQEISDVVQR
T4 sequence (P49841 whole entry): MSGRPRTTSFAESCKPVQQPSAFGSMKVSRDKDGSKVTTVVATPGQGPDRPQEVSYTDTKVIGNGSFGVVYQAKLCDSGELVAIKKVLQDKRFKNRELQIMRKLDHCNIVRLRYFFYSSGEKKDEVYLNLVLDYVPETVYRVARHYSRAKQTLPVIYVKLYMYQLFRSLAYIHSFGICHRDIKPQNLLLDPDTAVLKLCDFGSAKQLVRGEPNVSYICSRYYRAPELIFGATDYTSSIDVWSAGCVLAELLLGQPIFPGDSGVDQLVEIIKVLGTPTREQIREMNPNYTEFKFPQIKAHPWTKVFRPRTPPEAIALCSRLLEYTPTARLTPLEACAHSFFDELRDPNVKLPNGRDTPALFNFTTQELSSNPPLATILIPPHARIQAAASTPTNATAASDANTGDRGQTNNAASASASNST
Sequence of LIMK2(h) (P53671 whole entry): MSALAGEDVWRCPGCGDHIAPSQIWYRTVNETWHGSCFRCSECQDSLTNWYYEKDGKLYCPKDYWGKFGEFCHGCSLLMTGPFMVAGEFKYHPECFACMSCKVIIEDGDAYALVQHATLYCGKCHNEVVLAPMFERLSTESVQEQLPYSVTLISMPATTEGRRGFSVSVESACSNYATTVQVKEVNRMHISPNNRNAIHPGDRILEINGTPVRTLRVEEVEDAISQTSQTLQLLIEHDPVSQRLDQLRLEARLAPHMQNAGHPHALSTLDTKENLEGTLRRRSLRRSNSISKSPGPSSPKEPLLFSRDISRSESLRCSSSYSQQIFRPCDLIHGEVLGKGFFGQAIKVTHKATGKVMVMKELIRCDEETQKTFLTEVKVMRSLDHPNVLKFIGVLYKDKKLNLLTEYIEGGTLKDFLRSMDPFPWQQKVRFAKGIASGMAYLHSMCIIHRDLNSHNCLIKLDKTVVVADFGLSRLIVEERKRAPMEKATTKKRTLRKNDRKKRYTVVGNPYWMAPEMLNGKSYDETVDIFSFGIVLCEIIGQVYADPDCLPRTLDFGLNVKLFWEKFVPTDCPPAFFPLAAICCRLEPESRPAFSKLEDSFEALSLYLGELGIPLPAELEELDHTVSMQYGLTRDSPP
Sequence of KDR(h) (P35968 whole entry): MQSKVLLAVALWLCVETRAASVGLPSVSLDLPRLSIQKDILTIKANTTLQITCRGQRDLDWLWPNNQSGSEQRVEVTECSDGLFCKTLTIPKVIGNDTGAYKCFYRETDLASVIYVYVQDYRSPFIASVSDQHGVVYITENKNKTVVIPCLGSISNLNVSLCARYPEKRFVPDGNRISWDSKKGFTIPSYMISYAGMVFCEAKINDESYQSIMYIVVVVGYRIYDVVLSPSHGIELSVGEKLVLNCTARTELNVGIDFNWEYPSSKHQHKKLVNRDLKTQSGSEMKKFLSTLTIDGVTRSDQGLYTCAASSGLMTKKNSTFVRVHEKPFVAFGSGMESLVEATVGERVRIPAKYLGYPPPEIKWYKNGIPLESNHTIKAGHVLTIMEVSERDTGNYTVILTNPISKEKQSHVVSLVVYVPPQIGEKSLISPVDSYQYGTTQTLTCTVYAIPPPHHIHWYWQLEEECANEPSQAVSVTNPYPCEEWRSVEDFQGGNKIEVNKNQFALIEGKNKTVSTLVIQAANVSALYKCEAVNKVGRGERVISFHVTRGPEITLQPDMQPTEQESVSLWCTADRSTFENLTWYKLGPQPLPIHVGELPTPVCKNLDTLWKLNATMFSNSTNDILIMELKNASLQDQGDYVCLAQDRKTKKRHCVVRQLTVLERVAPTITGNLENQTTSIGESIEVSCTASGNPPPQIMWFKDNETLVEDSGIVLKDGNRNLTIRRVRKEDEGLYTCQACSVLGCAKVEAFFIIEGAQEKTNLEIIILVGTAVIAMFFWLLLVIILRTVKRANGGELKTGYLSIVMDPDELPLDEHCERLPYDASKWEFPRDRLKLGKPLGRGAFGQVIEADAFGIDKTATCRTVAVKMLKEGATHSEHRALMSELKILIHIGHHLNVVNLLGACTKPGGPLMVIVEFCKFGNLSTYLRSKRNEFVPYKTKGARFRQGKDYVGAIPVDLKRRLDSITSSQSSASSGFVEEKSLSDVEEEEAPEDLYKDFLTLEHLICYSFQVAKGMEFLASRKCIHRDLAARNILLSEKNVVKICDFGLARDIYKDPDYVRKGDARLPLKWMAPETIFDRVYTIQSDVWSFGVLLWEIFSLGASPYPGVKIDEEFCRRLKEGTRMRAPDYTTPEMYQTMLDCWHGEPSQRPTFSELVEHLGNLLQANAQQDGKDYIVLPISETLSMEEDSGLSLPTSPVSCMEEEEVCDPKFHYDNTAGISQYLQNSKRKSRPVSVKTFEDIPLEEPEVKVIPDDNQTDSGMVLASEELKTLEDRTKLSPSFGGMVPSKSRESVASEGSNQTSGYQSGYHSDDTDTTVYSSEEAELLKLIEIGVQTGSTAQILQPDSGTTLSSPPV
T2 sequence (Q9Y6M4 whole entry): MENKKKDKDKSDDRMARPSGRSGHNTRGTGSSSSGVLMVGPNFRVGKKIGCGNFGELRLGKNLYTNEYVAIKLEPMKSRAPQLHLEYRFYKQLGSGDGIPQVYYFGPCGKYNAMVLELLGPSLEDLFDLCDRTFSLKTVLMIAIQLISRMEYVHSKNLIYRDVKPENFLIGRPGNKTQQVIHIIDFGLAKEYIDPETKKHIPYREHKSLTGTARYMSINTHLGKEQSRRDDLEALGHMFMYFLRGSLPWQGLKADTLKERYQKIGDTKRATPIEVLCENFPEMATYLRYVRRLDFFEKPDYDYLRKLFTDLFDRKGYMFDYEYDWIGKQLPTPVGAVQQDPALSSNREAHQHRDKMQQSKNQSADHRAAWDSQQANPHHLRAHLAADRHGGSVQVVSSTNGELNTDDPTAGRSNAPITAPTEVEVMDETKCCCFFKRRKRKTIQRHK
T1 sequence (Q5TCX8 whole entry): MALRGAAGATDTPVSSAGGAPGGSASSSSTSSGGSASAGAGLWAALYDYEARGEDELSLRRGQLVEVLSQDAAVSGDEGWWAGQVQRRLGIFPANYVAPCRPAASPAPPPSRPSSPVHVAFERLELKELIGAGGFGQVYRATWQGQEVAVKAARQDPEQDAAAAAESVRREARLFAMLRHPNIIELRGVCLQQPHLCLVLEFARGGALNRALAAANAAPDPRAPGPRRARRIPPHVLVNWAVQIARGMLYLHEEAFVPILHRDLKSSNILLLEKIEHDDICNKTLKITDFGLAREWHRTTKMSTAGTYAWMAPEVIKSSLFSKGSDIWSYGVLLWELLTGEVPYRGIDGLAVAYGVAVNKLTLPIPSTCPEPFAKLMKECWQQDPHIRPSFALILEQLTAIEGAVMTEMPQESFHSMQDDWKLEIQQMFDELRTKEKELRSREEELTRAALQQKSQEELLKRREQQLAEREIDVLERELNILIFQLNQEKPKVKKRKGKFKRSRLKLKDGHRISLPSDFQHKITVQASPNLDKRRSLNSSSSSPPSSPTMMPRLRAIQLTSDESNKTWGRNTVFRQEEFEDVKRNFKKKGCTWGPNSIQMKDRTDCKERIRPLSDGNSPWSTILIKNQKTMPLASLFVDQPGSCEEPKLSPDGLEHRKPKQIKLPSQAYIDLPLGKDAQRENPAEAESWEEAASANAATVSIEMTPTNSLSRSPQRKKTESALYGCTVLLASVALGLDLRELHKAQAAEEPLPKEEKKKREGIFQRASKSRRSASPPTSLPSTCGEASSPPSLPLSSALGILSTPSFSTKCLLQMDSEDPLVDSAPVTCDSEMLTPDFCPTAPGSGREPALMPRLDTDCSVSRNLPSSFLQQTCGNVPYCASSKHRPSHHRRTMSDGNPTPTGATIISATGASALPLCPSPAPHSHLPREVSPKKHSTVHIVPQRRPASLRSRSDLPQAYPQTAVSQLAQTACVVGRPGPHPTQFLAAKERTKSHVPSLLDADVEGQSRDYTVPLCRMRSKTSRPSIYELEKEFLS

`Fc1ccc2ncnc(NCCc3ccc(Cl)cc3)c2c1` [5at, N-[2-(4-Chlorophenyl)Ethyl]-6-Fluoro-4-Quinazolinamine] showed a remaining activity at 10 µM (MLK4(h); [1]) of 94%, a remaining activity at 10 µM (CK1γ3(h); [1]) of 73% and a remaining activity at 10 µM (BrSK2(h); [1]) of 71%. For the same compound, the remaining activity at 10 µM (KDR(h); [1]) was 74%, the remaining activity at 10 µM (GSK3β(h); [1]) was 97% and the remaining activity at 10 µM (PRK1(h); [1]) was 80%. For the same compound, the remaining activity at 10 µM (Arg(m); [1]) was 98%, the remaining activity at 10 µM (LIMK2(h); [1]) was 84% and the remaining activity at 10 µM (Axl(h); [1]) was 75%.

In the case of `Fc1ccc(CCNc2ncnc3ccc(F)cc23)cc1` [5as, 6-Fluoro-N-[2-(4-Fluorophenyl)Ethyl]-4-Quinazolinamine], the remaining activity at 10 µM (MLK4(h); [2]) is reported as 93%, the remaining activity at 10 µM (CK1γ3(h); [2]) is reported as 87% and the remaining activity at 10 µM (BrSK2(h); [2]) is reported as 65%. For the same compound, the remaining activity at 10 µM (KDR(h); [2]) was 77%, the remaining activity at 10 µM (GSK3β(h); [2]) was 91% and the remaining activity at 10 µM (PRK1(h); [2]) was 72%. It also gave a remaining activity at 10 µM (Arg(m); [2]) of 105%, a remaining activity at 10 µM (LIMK2(h); [2]) of 87% and a remaining activity at 10 µM (Axl(h); [2]) of 90%.

Compound `COc1ccc2ncnc(Nc3cccc(F)c3)c2c1` [5ay, N-(3-Fluorophenyl)-6-Methoxy-4-Quinazolinamine] has a remaining activity at 10 µM (MLK4(h); [3]) of 91%, a remaining activity at 10 µM (CK1γ3(h); [3]) of 83% and a remaining activity at 10 µM (BrSK2(h); [3]) of 42%. It also gave a remaining activity at 10 µM (KDR(h); [3]) of 64%, a remaining activity at 10 µM (GSK3β(h); [3]) of 76% and a remaining activity at 10 µM (PRK1(h); [3]) of 77%. The remaining activity at 10 µM (Arg(m); [3]) was 83%, the remaining activity at 10 µM (LIMK2(h); [3]) was 103% and the remaining activity at 10 µM (Axl(h); [3]) was 64%.

With `Fc1ccc(CNc2ncnc3ccc(F)cc23)cc1` [5aa, 6-Fluoro-N-(4-fluorobenzyl)-4-Quinazolinamine] the remaining activity at 10 µM (MLK4(h); [4]) was 105%, the remaining activity at 10 µM (CK1γ3(h); [4]) was 81% and the remaining activity at 10 µM (BrSK2(h); [4]) was 79%. It also gave a remaining activity at 10 µM (KDR(h); [4]) of 86%, a remaining activity at 10 µM (GSK3β(h); [4]) of 85% and a remaining activity at 10 µM (PRK1(h); [4]) of 89%. For the same compound, the remaining activity at 10 µM (Arg(m); [4]) was 91%, the remaining activity at 10 µM (LIMK2(h); [4]) was 94% and the remaining activity at 10 µM (Axl(h); [4]) was 62%.
